SMILES strings stand for the structures.

This test concerns gastric secretion. As to the kind of experiment: Inhibition of Gastric Secretion, pylorus-ligated rats (Experiment 2). It counts as in vivo, Sprague-Dawley rats. The conditions noted are these: relative to omeprazole (equation III), 20 mg/kg intraduodenally, pylorus-ligated rats, 5 hours. The essentials: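 Sprague-Dawley rats (170±10 g, n=5/group), fasted 24 h, pylorus-ligated under ether; compounds given intraduodenally at 20 mg/kg in 30% aqueous PEG 400. Gastric juice collected after 5 h, volume and acidity measured; relative volume, acid concentration and acid output computed versus vehicle and omeprazole groups.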

With `COc1cccc2c(N3CCc4ccccc4C3C)nc(Nc3ccc(F)cc3C)nc12.Cl` (stereo not shown) [Example 34, 8-Methoxy-2-(4-Fluoro-2-Methyl-Phenylamino)-4-(1-Methyl-1,2,3,4-Tetrahydroisoquinoline-2-Yl)Quinazoline Hydrochloride], the “Relative Acid Output” value worked out at 0.97.

Values taken from patent publication US5686458A, “Quinazoline deriviates for treating peptic ulcer” (Yuhan Corporation, priority 1992, dated 1997).
